According to patent US11161815B2, “Hydrocarbylsulfonyl-substituted pyridines and their use in the treatment of cancer” (Oblique Therapeutics AB, priority 2017, dated 2021):

Experiments:
[1] = target: recombinant thioredoxin reductase 1 (TrxR1) (Homo sapiens (Human), UniProt Q16881); assay: Inhibition of recombinant TrxR1 (DTNB assay); type: biochemical; settings: 30 nM TrxR1, 250 μM NADPH, 15 minutes incubation, read-out: TrxR Assay IC50
Description: (§1) Small molecule inhibition of recombinant thioredoxin reductase 1 (TrxR1) and gluthathione reductase (GR) was examined in 96-well plate format. 30 nM TrxR1 was incubated in the presence of 250 μM NADPH, 0.1 mg/ml BSA, and various concentrations of compound (1% DMSO final) in 50 mM Tris (pH 7.5) and 2 mM EDTA buffer for 15 minutes. Following the incubation period, 2 mM DTNB was added to each well and the change in O.D. at 412 nm was followed. Percent activity was determined using DMSO vehicle and no TrxR1 (blank) controls. 2 nM GR was incubated in the presence of 250 μM NADPH, 0.1 mg/ml BSA, and various concentrations of compounds (1% DMSO final) in 50 mM Tris (pH 7.5) and 2 mM EDTA buffer for 15 minutes. Following the incubation period, 1 mM GSSG was added to each well and the change in O.D. at 340 nm was followed. Percent activity was determined using DMSO vehicle and no GR (blank) controls.

[2] = target: gluthathione reductase (GR) (Homo sapiens (Human), UniProt P00390); assay: Inhibition of recombinant GR (GSSG assay); type: biochemical; settings: 2 nM GR, 250 μM NADPH, 15 minutes incubation
gluthathione reductase (GR), sequence (P00390 44-522): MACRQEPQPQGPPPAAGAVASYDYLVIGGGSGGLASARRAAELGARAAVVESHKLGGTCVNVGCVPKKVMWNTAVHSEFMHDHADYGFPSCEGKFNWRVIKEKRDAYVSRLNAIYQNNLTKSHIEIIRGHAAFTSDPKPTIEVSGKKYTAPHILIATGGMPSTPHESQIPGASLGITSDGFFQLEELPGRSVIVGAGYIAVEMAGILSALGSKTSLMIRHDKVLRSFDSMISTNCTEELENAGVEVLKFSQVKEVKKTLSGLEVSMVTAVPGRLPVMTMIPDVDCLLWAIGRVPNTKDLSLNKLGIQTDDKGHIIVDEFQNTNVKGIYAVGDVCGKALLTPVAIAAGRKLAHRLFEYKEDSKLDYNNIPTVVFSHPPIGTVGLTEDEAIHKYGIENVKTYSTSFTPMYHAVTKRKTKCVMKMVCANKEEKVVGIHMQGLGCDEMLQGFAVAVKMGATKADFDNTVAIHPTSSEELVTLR
Description: as §1

FaDu cells = assay: Head and neck cancer cell viability assay (Cell-Quanti Blue); type: cell-based; settings: Homo sapiens, 72 hrs, 10% FBS media containing 25 nM selenite
Description: (§2) FaDu cells were plated 2000 cells/well in 96-well black optical plates in the presence of 10% FBS media containing 25 nM selenite. The following day cells were treated with various concentrations of the compound of Example 1 (0.1% DMSO final) and incubated for 72 hrs. After the incubation Cell-Quanti Blue reagent was added to each well and incubated for additional 3 hrs. Fluorescence was read ex:530 nm/em:590 nm, and percent of viability was determined using DMSO vehicle and no cell (blank) controls.

MDA-MB-231 cells = assay: Breast cancer cell viability assay (Alamar Blue); type: cell-based; settings: Homo sapiens, 72 hrs, 10% FBS media containing 25 nM selenite
Description: as §2, with “MDA-MB-231” for “FaDu”, “compounds” for “the compound of Example 1”, “Alamar” for “Cell-Quanti”

U-87 MG = assay: Cancer cell viability assay (MTT), U-87 MG; type: cell-based; settings: Homo sapiens, 72 hrs, 10% FBS media
Description: (§3) Breast cancer and glioblastoma cell lines were plated 4000 cells/well in 96-well plates in the presence of 10% FBS media. The following day cells were treated with various concentrations of the example compounds (0.1% DMSO final) and incubated for 72 hrs. After the incubation An MTT assay was performed to access cell viability. Percent of viability was determined using DMSO vehicle and no cell (blank) controls.

MDA-MB-231 = assay: Cancer cell viability assay (MTT), MDA-MB-231; type: cell-based; settings: Homo sapiens, 72 hrs, 10% FBS media
Description: as §3

MDA-MB-468 = assay: Cancer cell viability assay (MTT), MDA-MB-468; type: cell-based; settings: Homo sapiens, 72 hrs, 10% FBS media
Description: as §3

recombinant thioredoxin reductase 1 (TrxR1), sequence (Q16881 151-649): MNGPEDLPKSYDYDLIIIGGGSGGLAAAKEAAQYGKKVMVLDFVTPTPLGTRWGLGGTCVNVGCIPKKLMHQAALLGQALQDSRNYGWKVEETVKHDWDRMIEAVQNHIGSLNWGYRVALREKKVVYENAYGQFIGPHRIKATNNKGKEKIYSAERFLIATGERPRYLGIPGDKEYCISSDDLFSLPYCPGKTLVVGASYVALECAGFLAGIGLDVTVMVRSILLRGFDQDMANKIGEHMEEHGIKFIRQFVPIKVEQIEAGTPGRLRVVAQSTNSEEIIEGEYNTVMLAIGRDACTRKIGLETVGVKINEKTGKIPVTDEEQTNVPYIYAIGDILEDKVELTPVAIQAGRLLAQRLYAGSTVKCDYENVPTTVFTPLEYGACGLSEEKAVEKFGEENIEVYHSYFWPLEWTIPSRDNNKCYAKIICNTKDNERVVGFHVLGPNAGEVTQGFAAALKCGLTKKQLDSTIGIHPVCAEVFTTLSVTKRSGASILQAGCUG

SMILES | IC50 [1] | IC50 [2] | IC50 (FaDu cells) | IC50 (MDA-MB-231 cells) | IC50 (U-87 MG) | IC50 (MDA-MB-231) | IC50 (MDA-MB-468)
COc1ccc([N+](=O)[O-])c(S(=O)(=O)C2CCCC2)n1 [Example 2, 2-Cyclopentylsulfonyl-6-methoxy-3-nitropyridine] | 1.03 µM | > 100 µM | 3.65 µM | – | – | – | –
CCCCCCS(=O)(=O)c1nc(OC)ccc1[N+](=O)[O-] [Example 3, 2-Hexylsulfonyl-6-methoxy-3-nitropyridine] | 0.489 µM | > 100 µM | 0.45 µM | – | – | – | –
O=[N+]([O-])c1ccc(Cl)nc1S(=O)(=O)Cc1ccccc1 [Example 4, 2-Benzylsulfonyl-6-chloro-3-nitropyridine] | 0.0392 µM | 18.1 µM | 0.66 µM | – | – | – | –
O=[N+]([O-])c1ccc(Cl)nc1S(=O)(=O)C1CCCC1 [Example 5, 6-Chloro-2-(cyclopentylsulfonyl)-3-nitropyridine] | 0.181 µM | 60.5 µM | 1.01 µM | – | – | – | –
CCCCCCS(=O)(=O)c1nc(Cl)ccc1[N+](=O)[O-] [Example 6, 6-Chloro-2-(hexylsulfonyl)-3-nitropyridine] | 0.056 µM | 8.76 µM | 0.71 µM | – | – | – | –
CN(C)c1ccc([N+](=O)[O-])c(S(=O)(=O)Cc2ccccc2)n1 [Example 7, 2-Benzylsulfonyl-6-dimethylamino-3-nitropyridine] | – | – | 2.88 µM | – | – | – | –
CN(C)c1ccc([N+](=O)[O-])c(S(=O)(=O)C2CCCC2)n1 [Example 8, 2-Cyclopentylsulfonyl-6-dimethylamino-3-nitropyridine] | 0.188 µM | > 100 µM | 6.97 µM | – | – | – | –
CCCCCCS(=O)(=O)c1nc(N(C)C)ccc1[N+](=O)[O-] [Example 9, 6-Dimethylamino-2-hexylsulfonyl-3-nitropyridine] | 0.333 µM | > 100 µM | 12.7 µM | – | – | – | –
CCS(=O)(=O)c1nc(OC)ccc1[N+](=O)[O-] [Example 10, 2-(ethylsulfonyl)-6-methoxy-3-nitropyridine] | 0.124 µM | > 100 µM | – | 2.95 µM | 5.95 µM | 5.12 µM | 3.16 µM
COc1ccc([N+](=O)[O-])c(S(=O)(=O)C(C)C)n1 [Example 11, 2-(isopropylsulfonyl)-6-methoxy-3-nitropyridine] | 0.204 µM | > 100 µM | – | – | 6 µM | 7.1 µM | 4.9 µM
CCCCCCCCS(=O)(=O)c1nc(OC)ccc1[N+](=O)[O-] [Example 12, 6-methoxy-3-nitro-2-(octylsulfonyl)pyridine] | 0.0123 µM | > 100 µM | – | 4.51 µM | – | – | –
COc1ccc([N+](=O)[O-])c(S(=O)(=O)C2CC2)n1 [Example 13, 2-(cyclopropylsulfonyl)-6-methoxy-3-nitropyridine] | 0.16 µM | > 100 µM | – | – | 6.92 µM | 5.91 µM | 4.68 µM
COc1ccc([N+](=O)[O-])c(S(=O)(=O)CCCCC(F)(F)F)n1 [Example 14, 6-methoxy-3-nitro-2-((5,5,5-trifluoropentyl)sulfonyl)pyridine] | 0.0969 µM | > 100 µM | – | 5.6 µM | 7.52 µM | 7.73 µM | 3.88 µM
COc1ccc([N+](=O)[O-])c(S(=O)(=O)CCNC(C)=O)n1 [Example 15, N-(2-((6-methoxy-3-nitropyridin-2-yl)sulfonyl)ethyl)acetamide] | 0.122 µM | > 100 µM | – | 11.4 µM | 16.3 µM | 18.4 µM | 5.47 µM
COC(=O)CCS(=O)(=O)c1nc(OC)ccc1[N+](=O)[O-] [Example 16, methyl 3-((6-methoxy-3-nitropyridin-2-yl)sulfonyl)propanoate] | 0.0606 µM | > 100 µM | – | 8.09 µM | 5.23 µM | 4.9 µM | 3.9 µM
COc1ccc([N+](=O)[O-])c(S(=O)(=O)CCCO)n1 [Example 17, 3-((6-methoxy-3-nitropyridin-2-yl)sulfonyl)propan-1-ol] | 0.103 µM | > 100 µM | – | 12.5 µM | 19.5 µM | > 33 µM | 9.77 µM

SMILES | IC50 [1] | IC50 [2] | IC50 (FaDu cells) | IC50 (MDA-MB-231 cells) | IC50 (U-87 MG) | IC50 (MDA-MB-231) | IC50 (MDA-MB-468)
COc1ccc([N+](=O)[O-])c(S(=O)(=O)CCN2CCCCC2)n1 [Example 18, 6-methoxy-3-nitro-2-((2-(piperidin-1-yl)ethyl)sulfonyl)pyridine] | 0.00152 µM | > 100 µM | – | – | – | – | –
COc1ccc([N+](=O)[O-])c(S(=O)(=O)Cc2ccccc2Cl)n1 [Example 19, 2-((2-chlorobenzyl)sulfonyl)-6-methoxy-3-nitropyridine] | 0.0076 µM | > 100 µM | – | 1.8 µM | – | – | –
COc1ccc([N+](=O)[O-])c(S(=O)(=O)Cc2cccc(Cl)c2)n1 [Example 20, 2-((3-chlorobenzyl)sulfonyl)-6-methoxy-3-nitropyridine] | 0.00716 µM | > 100 µM | – | 3.2 µM | – | – | –
COc1ccc([N+](=O)[O-])c(S(=O)(=O)Cc2ccc(Cl)cc2)n1 [Example 21, 2-((4-chlorobenzyl)sulfonyl)-6-methoxy-3-nitropyridine] | 0.00435 µM | > 100 µM | – | 4.1 µM | – | – | –
COc1ccc([N+](=O)[O-])c(S(=O)(=O)Cc2ccc(F)cc2)n1 [Example 22, 2-((4-fluorobenzyl)sulfonyl)-6-methoxy-3-nitropyridine] | 0.00505 µM | > 100 µM | – | 1.85 µM | – | – | –
COc1ccc([N+](=O)[O-])c(S(=O)(=O)Cc2ccc(C)cc2)n1 [Example 23, 6-methoxy-2-((4-methylbenzyl)sulfonyl)-3-nitropyridine] | 0.0145 µM | > 100 µM | – | – | – | – | –
COc1ccc(CS(=O)(=O)c2nc(OC)ccc2[N+](=O)[O-])cc1 [Example 24, 6-methoxy-2-((4-methoxybenzyl)sulfonyl)-3-nitropyridine] | 0.0253 µM | > 100 µM | – | 3.5 µM | – | – | –
COc1ccc([N+](=O)[O-])c(S(=O)(=O)Cc2ccc(OC(F)(F)F)cc2)n1 [Example 25, 6-methoxy-3-nitro-2-((4-(trifluoromethoxy)benzyl)sulfonyl)pyridine] | 0.00103 µM | > 100 µM | – | – | – | – | –
COc1ccc([N+](=O)[O-])c(S(=O)(=O)CCc2ccccc2)n1 [Example 26, 6-methoxy-3-nitro-2-(phenethylsulfonyl)pyridine] | 0.0188 µM | > 100 µM | – | 5.22 µM | – | – | –
COc1ccc([N+](=O)[O-])c(S(=O)(=O)CCCc2ccccc2)n1 [Example 27, 6-methoxy-3-nitro-2-((3-phenylpropyl)sulfonyl)pyridine] | 0.00733 µM | > 100 µM | – | 7.13 µM | – | – | –
COc1ccc([N+](=O)[O-])c(S(=O)(=O)CCOc2ccccc2)n1 [Example 28, 6-methoxy-3-nitro-2-((2-phenoxyethyl)sulfonyl)pyridine] | 0.0203 µM | > 100 µM | – | 5.24 µM | – | – | –
COc1ccc([N+](=O)[O-])c(S(=O)(=O)Cc2ccco2)n1 [Example 29, 2-((furan-2-ylmethyl)sulfonyl)-6-methoxy-3-nitropyridine] | 0.00678 µM | > 100 µM | – | 4.36 µM | – | – | –
COc1ccc([N+](=O)[O-])c(S(=O)(=O)CCc2cnccn2)n1 [Example 30, 2-(2-((6-methoxy-3-nitropyridin-2-yl)sulfonyl)ethyl)pyrazine] | 0.0669 µM | > 100 µM | – | 2.66 µM | – | – | –
CC[S+]([O-])c1nc(OC)ccc1[N+](=O)[O-] (stereo not shown) [Example 31, 2-Ethanesulfinyl-6-methoxy-3-nitro-pyridine] | 0.131 µM | > 100 µM | – | – | 6.22 µM | 3.51 µM | 3.23 µM
COc1ccc([N+](=O)[O-])c([S+]([O-])Cc2ccccc2)n1 (stereo not shown) [Example 32, 2-benzylsulfinyl-6-methoxy-3-nitro-pyridine] | 0.0765 µM | – | – | – | 2.48 µM | 1.42 µM | 0.64 µM
CCCCCCCC[S+]([O-])c1nc(OC)ccc1[N+](=O)[O-] (stereo not shown) [Example 33, 6-Methoxy-3-nitro-2-octylsulfinyl-pyridine] | 0.5 µM | 85.4 µM | – | – | 9.25 µM | 3.84 µM | 1.85 µM
